In patent publication US8609362B2, “G-proteins” (Givaudan SA, priority 2002, dated 2013):
Each block holds one molecule with its values, some of them ahead of it. Residues, ends and D or L forms follow the SMILES beside them.

Columns and labels:
human TAS1R2/TAS1R3 = molecular target: T1, human TAS1R2/TAS1R3 (Homo sapiens, UniProt Q7RTX0+Q8TE23); test: Fluo-4 calcium assay, cells transfected with human sweet receptor TAS1R2/TAS1R3 and expressing a promiscuous G-protein; assay type: cell-based; details: ligand 2.5 mM
T1 construct: expressed in transfected cells; host or cells: HEK293T cells stably expressing the G-protein, co-transfected with T1R2 and T1R3 cDNA
T1 sequence (Q8TE23 20-839): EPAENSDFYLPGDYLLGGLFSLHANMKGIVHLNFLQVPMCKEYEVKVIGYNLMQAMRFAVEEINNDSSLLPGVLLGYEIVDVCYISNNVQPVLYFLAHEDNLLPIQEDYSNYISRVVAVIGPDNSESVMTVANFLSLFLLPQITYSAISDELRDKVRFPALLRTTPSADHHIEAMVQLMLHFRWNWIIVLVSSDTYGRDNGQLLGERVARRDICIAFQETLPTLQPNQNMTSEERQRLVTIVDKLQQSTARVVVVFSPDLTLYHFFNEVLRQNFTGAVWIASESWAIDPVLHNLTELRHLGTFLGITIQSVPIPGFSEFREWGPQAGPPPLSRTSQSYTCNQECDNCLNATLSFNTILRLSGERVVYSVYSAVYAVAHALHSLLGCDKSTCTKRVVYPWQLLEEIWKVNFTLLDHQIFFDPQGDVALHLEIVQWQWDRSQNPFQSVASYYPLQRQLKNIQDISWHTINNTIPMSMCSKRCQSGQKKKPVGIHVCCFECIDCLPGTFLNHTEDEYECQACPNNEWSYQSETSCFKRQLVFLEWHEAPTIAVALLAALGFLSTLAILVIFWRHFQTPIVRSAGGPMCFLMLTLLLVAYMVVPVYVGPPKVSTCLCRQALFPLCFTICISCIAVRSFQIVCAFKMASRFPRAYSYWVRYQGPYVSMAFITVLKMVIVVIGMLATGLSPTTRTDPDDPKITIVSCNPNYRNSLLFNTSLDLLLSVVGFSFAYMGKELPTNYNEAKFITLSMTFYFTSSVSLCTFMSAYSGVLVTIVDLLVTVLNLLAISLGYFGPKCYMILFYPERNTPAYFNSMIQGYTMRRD
T1 sequence (Q7RTX0 21-852): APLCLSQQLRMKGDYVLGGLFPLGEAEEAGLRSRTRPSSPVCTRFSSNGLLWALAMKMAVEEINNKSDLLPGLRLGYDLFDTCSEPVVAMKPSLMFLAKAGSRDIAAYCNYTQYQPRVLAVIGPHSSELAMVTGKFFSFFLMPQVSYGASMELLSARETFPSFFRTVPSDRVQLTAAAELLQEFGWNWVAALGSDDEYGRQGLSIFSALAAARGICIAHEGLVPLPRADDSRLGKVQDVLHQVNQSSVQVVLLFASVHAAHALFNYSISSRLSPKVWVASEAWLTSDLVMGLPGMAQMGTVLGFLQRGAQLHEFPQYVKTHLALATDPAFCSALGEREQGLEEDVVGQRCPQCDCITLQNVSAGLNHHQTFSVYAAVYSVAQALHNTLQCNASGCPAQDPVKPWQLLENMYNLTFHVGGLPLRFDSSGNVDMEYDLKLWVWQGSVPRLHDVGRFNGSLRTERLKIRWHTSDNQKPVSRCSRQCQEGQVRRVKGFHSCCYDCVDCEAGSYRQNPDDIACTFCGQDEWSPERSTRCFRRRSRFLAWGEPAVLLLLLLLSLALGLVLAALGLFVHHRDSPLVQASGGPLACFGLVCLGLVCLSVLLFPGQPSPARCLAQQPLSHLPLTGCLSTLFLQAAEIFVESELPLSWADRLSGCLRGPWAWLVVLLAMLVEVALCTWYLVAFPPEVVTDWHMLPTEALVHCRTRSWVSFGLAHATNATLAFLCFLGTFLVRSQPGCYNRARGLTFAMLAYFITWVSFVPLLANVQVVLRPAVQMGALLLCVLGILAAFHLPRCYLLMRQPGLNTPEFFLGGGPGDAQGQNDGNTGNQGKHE
Procedure: At day 0, cells stably expressing the G-protein are plated in a 6-well plate at a density of 800,000-950,000 cells per well and grown overnight in selective growth media. On day 1, the media is changed to an antibiotic-free growth media and the cells are transfected using 2 μg of T1 R2 and 2 μg of T1 R3 cDNA and 10 μl of Lipofectamine 2000 (Invitrogen). The cells are maintained overnight in antibiotic-free growth media. On day 2, the cells are replated into a black, clear-bottom 96 well plate at 20,000 cells per well and grown overnight. The morning of the calcium assay, the media is replaced with low glucose media supplemented with Glutamax and dialyzed FBS to minimize receptor desensitization by sugars and glutamate. The cells are further incubated in this media for 6 hours at 37 degrees C. At the end of this period, the cells are processed for the calcium assay according to conditions described above.
(§1) Following the methodology as described in Example 5 the following results were obtained: […]

human TAS2R16 = molecular target: T2, human TAS2R16 (Homo sapiens, UniProt Q9NYV7); test: Fluo-4 calcium assay, cells transiently transfected with human TAS2R16 and expressing a promiscuous G-protein; assay type: cell-based; details: ligand 5 mM; for increase in mean fluorescence over baseline following ligand addition: human TAS2R16
T2 construct: expressed in transfected cells; host or cells: HEK293T cells stably expressing Gα16gustducin44, Gα16 or Gα16z44
T2 sequence (Q9NYV7 1-291): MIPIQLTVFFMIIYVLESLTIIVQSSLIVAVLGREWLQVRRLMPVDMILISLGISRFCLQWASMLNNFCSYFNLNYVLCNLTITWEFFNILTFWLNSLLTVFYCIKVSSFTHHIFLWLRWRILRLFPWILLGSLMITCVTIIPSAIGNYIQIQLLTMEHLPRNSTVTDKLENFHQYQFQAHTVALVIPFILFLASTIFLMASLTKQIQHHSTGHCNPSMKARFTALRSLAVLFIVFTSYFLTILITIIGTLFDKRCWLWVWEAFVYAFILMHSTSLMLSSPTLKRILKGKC
Procedure: The protocol is described in “G-protein coupled receptors (Signal Transduction Series)”; Editors: Tatsuya Haga and Gabriel Berstein, 1st ed., 424 pp.CRC Press—Boca Raton, Fla.; September 1999, and may be summarised as follows: • 1. Day 0: 96-well plates are seeded with 20K cells per well and maintained at 37 degrees C. overnight in nutritive growth media. • 2. Day 1: Cells are transfected using 300 ng of GPCR DNA and 0.6 μl of Lipofectamine 2000 (Invitrogen) per well. Transfected cells are and maintained at 37 degrees C. overnight in nutritive growth media. • 3.
(§2) At day 0, cells stably expressing the G-protein are plated in black, clear-bottom 96-well plate at 20,000 cells per well and grown overnight in selective growth media. On day 1, the media is changed to an antibiotic-free growth media and the cells are transfected using 300 ng GPCR DNA and 0.6 μl of Lipofectamine 2000 (Invitrogen). The cells are grown overnight and processed the next day using the Fluo-4 calcium assay conditions described in Example 2 above.

[1] = test system: sham transfected (control); test: Fluo-4 calcium assay, sham transfected control cells of Table 1; assay type: cell-based
Procedure: as §2

mouse T2R5 = molecular target: T3, mouse T2R5 (Mus musculus, UniProt Q9JKT4); test: Fluo-4 calcium assay, cells transfected with mouse bitter receptor T2R5 and expressing a promiscuous G-protein; assay type: cell-based; details: for increase in mean fluorescence over baseline following ligand addition: ligand 10 μM
T3 construct: expressed in transfected cells; host or cells: HEK293T cells stably expressing Gα16gustducin44 or Gα16
T3 sequence (Q9JKT4 1-300): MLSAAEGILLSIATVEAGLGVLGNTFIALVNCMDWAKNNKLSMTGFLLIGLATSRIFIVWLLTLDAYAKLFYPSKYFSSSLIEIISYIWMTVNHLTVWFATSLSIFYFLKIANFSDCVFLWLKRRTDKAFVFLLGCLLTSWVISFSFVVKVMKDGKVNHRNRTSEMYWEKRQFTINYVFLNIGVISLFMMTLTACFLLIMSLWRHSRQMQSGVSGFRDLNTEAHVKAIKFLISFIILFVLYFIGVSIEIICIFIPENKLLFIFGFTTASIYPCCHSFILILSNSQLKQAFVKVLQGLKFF
Procedure: as §2, §1

[2] = test system: sham transfected (control); test: Fluo-4 calcium assay, sham transfected control cells of Table 2; assay type: cell-based
Procedure: as §2, §1

[3] = test system: G-protein only (control w/o tetracycline); details: Gα16gustducin44, ligand 250 μM
Procedure: All assays are performed using black, clear-bottom 96-well plates that have been seeded the day before with 20K transfected cells per well and have been maintained at 37 degrees C. overnight in appropriate growth media. At the time of the assay, the growth media is discarded and cells are incubated for 1 hour (at room temperature in the dark) with 75 μl of a calcium assay solution consisting of 1.5 μM Fluo-4 AM (Molecular Probes) and 2.5 mM probenicid (Sigma-Aldrich) dissolved in a Hanks balanced salts solution (HBSS) that has been supplemented with 10 mM Hepes, 200 μM calcium chloride and 0.1% bovine serum albumin, pH 7.4 at 37 degrees C. […] For assay reading, the plate is placed in a fluorescent microplate reader, for example the Flexstation (Molecular Devices), and receptor activation is initiated following addition of 20 μl of a 10× concentrated ligand stock solution. Fluorescence is continuously monitored for 15 seconds prior to ligand addition and for 45-75 seconds after ligand addition. Receptor activation levels are defined as by the two following equations: % Activation=(Maximum fluorescence−baseline fluorescence/baseline fluorescence)*100 or Fluorescence Increase=Maximum Fluorescence—baseline fluorescence, where baseline fluorescence represents the average fluorescence levels prior to ligand addition. […]

[4] = HEK293T cells, TAS2R16, Flexstation

fluorescence signal with Gα16-gustducin 44, times stronger than wild-type Gα16 (human TAS1R2/TAS1R3; HEK293T cells): 2 times
fluorescence signal (in words) (human TAS1R2/TAS1R3): robust flurorescence signal
SMILES: COC(=O)[C@H](Cc1ccccc1)NC(=O)[C@@H](N)CC(=O)O [aspartame] (H-Asp-Phe-OMe)

fluorescent signal with Gα16-gustducin 44, times stronger than reference chimeric G-protein Gα16-z44 (human TAS2R16; [4]): about 3 times
fluorescent signal with Gα16-gustducin 44, times stronger than wild-type Gα16 (human TAS2R16; [4]): about 7 times
fluorescent signal (in words) (human TAS2R16; TAS2R16): robust fluorescent signal
receptor activation following ligand stimulation, Gα16gustducin44 cells compared with Gα16 cells (in words) (human TAS2R16; hTAS2R16): greater degree of receptor activation
increase in mean fluorescence over baseline following ligand addition (human TAS2R16; G-protein Gα16): 3494 RFUs
increase in mean fluorescence over baseline following ligand addition (human TAS2R16; G-protein Gα16gustducin44): 23821 RFUs
increase in mean fluorescence over baseline following ligand addition (human TAS2R16; G-protein Gα16z44): 8296 RFUs
SMILES: OC[C@H]1O[C@@H](Oc2ccccc2)[C@H](O)[C@@H](O)[C@@H]1O [phenyl-β-D-glucopyranoside]
increase in mean fluorescence over baseline following ligand addition ([1]; G-protein Gα16, ligand 5 mM): 1024 RFUs
increase in mean fluorescence over baseline following ligand addition ([1]; G-protein Gα16gustducin44, ligand 5 mM): 2162 RFUs
increase in mean fluorescence over baseline following ligand addition ([1]; G-protein Gα16z44, ligand 5 mM): 1541 RFUs

SMILES: C[C@@H]1C[C@@H]([C@H](O)CC2CC(=O)NC(=O)C2)C(=O)[C@@H](C)C1 [cycloheximide]
fluorescence signal (in words) (mouse T2R5; HEK293T cells, mouse T2R5, Gα16-gustducin 44, ligand 10 uM): robust flurorescence signal
fluorescence signal with Gα16-gustducin 44, times stronger than wild-type Gα16 (mouse T2R5; HEK293T cells, mouse T2R5, ligand 10 uM): 5 times
increase in mean fluorescence over baseline following ligand addition (mouse T2R5; mouse T2R5, G-protein Gα16): 2569 RFUs
increase in mean fluorescence over baseline following ligand addition (mouse T2R5; mouse T2R5, G-protein Gα16gustducin44): 10407 RFUs
increase in mean fluorescence over baseline following ligand addition ([2]; G-protein Gα16, ligand 10 μM): 1705 RFUs
increase in mean fluorescence over baseline following ligand addition ([2]; G-protein Gα16gustducin44, ligand 10 μM): 3989 RFUs

SMILES: O=C1C[C@@H]2OCC=C3CN4CC[C@]56c7ccccc7N1[C@H]5[C@H]2[C@H]3C[C@H]46 [strychnine]
increase in mean fluorescence over baseline following ligand addition [3]: 13238 RFUs
